The values below come from patent US10179914B2, “CDC25A inhibitor for the treatment of drug resistant cancer or for the prevention of tumor relapse” (INSERM (INSTITUT NATIONAL DE LA SANTÉ ET DE LA RECHERCHE …, priority 2014, dated 2019).

By pIC50 is commonly meant the IC50 on a negative log10 scale, so that one unit is a factor of ten.

pIC50: −log10 of the molar value.

Experiment [1] has as its system CDC25A. The experiment can be described thus: CDC25A protein level by western blot. As to conditions: for CDC25A protein level: 2 hours. In kind it is cell-based, human. The procedure:
(a) MV4-11 (left panel) and MOLM-14 (right panel) FLT3-ITD expressing cells were treated for 2 hours with FLT3 inhibitor III (100 nM), and the protein levels of CDC25A, CDC25B, CDC25C, Cyclin A, Cyclin D1 and p27Kip1 were analyzed by western blot. (b) MOLM-14 (FLT3-ITD postive), KG1 and HL-60 (FLT3 wt positive) and K562 (FLT3 negative) cell lines were treated for 2 hours with FLT3 inhibitor III and the level of CDC25A was analyzed by western blot. Actin was used as a loading control.
(a) MV4-11 (left panel) and MOLM-14 (right panel) cells were treated for 2 hours with STAT5 inhibitor (100 nM). CDC25A, Pim1, and STAT5 protein and phosphorylation levels were analyzed by western blot. (b) MV4-11 and MOLM-14 cells were transfected for 24 hours with STAT5A/B siRNA and the impact on CDC25A protein level was analyzed by western blot. […] Actin was used as a loading control in these experiments. ns: non specific.
(a) MV4-11 cells were first treated by cycloheximide (50 μg/mL) for 90 minutes in order to completely down regulate CDC25A. […] The FLT3 inhibitor was added 30 minutes before medium wash. This western blot is representative of three independent experiments. […] (b) CDC25A mRNA expression was measured by quantitative RT-PCR after FLT3 inhibition for 2 hours (100 nM). […] (c) MV4-11 cells were treated with cycloheximide (50 μg/mL) for the indicated times. FLT3 inhibitor III (100 nM) was added 30 minutes before cycloheximide treatment, and left in the medium. This western blot is representative of three independent experiments.
Cell lines and reagents. […] Concerning MOLM-14 cell line, the presence of a monoallelic 21 bp FLT3-ITD mutation and of an MLL-containing ins(11; 9)(q23;p22p23) were verified (Hematology laboratory of Toulouse University Hospital, Prof E. Delabesse and Dr I. Luquet). KG1 and HL-60 (ACC-14 and ACC-3, DSMZ) cell lines were grown in Iscove's Modified Dulbecco's Medium (IMDM, Gibco) plus 20% FBS. All cells were grown in the presence of 100 units/ml of penicillin and streptomycin (Invitrogen) at 37° C. and 5% CO2.
siRNA. The MV4-11 cell line was transfected with the Amaxa nucleofection technology (Lonza, Koeln, Germany). […] Twenty-four or forty-eight hours after transfection, cells were counted (trypan blue staining), and western blotting was performed.
Western blot. 2×10^6 cells were usually lysed in 100 μL of NuPAGE® LDS Sample Buffer (Novex, Life Technologies, Carlsbad, Calif., USA), sonicated for 15 seconds, and boiled for 3 minutes. Proteins were then resolved on NuPAGE® 4-12% Bis-Tris Gels and transferred to nitrocellulose membrane. Saturation of the membrane was done for 1 hour in Tris Buffer Saline with Tween 0.1% (TBS-T) containing 5% non-fat milk or 5% bovine serum albumin. Membranes were blotted with proper antibodies overnight at 4° C., washed thrice with TBS-T, and incubated for 30 minutes with HRP-conjugated secondary antibody (Promega, Madison, Wis., USA).
For orientation: A western blot detects proteins with antibodies after separation by electrophoresis.

Experiment [2] has as its target Cdc25C (Homo sapiens, UniProt P30307). Conditions: cited from earlier work.
Experiment [3] has as its target Cdc25A (Homo sapiens, UniProt P30304). Conditions: cited from earlier work.
For experiment [4], the target named is T1, Cdc25B (Homo sapiens, UniProt P30305).
T1 sequence (P30305 1-580): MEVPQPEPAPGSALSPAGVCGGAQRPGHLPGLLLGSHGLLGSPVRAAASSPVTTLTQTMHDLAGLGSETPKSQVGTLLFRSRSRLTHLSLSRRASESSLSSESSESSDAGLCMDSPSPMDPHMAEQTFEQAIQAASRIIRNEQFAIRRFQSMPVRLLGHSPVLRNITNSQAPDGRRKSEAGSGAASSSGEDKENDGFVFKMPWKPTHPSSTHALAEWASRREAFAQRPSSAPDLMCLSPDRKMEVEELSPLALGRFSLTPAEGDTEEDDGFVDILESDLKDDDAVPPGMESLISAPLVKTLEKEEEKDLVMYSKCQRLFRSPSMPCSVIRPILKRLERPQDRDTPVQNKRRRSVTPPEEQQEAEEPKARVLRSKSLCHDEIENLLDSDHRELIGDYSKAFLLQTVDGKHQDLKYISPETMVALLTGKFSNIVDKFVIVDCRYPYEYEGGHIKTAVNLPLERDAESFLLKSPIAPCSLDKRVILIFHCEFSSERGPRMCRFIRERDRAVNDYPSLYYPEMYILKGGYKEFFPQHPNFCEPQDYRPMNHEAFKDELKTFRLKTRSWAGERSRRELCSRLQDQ
Conditions: cited from earlier work.

In experiment [5] the test system is human cell lines (tumor cell proliferation). As to conditions: cited from earlier work.
Experiment [6] has as its system Mia-Paca-2 tumors. Conditions: active after oral administration; cited from earlier work.
In experiment [7] the test system is CDC25A mRNA. Put plainly: CDC25A mRNA by quantitative RT-PCR. The format is cell-based, human. Conditions: two hours, 100 nM, MOLM-14 cells. The procedure: (a) MV4-11 cells were first treated by cycloheximide (50 μg/mL) for 90 minutes in order to completely down regulate CDC25A. Cells were then placed in normal culture conditions in the presence (lower panel) or the absence (upper panel) of FLT3 inhibitor (100 nM), and western blot analysis of CDC25A was performed at the indicated times. The FLT3 inhibitor was added 30 minutes before medium wash. This western blot is representative of three independent experiments. […] (b) CDC25A mRNA expression was measured by quantitative RT-PCR after FLT3 inhibition for 2 hours (100 nM). […] (c) MV4-11 cells were treated with cycloheximide (50 μg/mL) for the indicated times. FLT3 inhibitor III (100 nM) was added 30 minutes before cycloheximide treatment, and left in the medium. This western blot is representative of three independent experiments.
Quantitative RT-PCR. Total RNA was extracted by RNeasy Kit (Qiagen) according to the manufacturer. RNA quality and purity was assessed by using the Agilent RNA 6000 Nano kit (Agilent Technologies, Santa Clara, Calif., USA). cDNA was generated with the SuperScript III First-Strand Synthesis System for RT-PCR (Invitrogen) following the manufacturer instructions. […] Results were analyzed with the LightCycler®480 software release 1.5.0 SP4 using the conventional ΔΔCt method.

Experiment [8] has as its system FLT3-wild type primary AML samples. Put plainly: Differentiation of FLT3 wild-type primary AML samples. The format is cell-based, human. As to conditions: same conditions. From the text:
Patient samples. Patient AML samples were obtained after informed consent in accordance with the Declaration of Helsinki and stored at the HIMIP collection. According to the French law, HIMIP collection has been declared to the Ministry of Higher Education and Research (DC 2008-307 collection 1) and obtained a transfer agreement (AC 2008-129) after approbation by ethical committees (Comité de Protection des Personnes Sud-Ouest et Outremer II and APHP ethical committee). Clinical and biological annotations of the samples have been declared to the CNIL (Comité National Informatique et Libertés i.e. Data processing and Liberties National Committee). Frozen cells were thawed in IMDM medium with 20% FBS and immediately processed for treatment. All patients were diagnosed at the Department of Hematology of Toulouse University Hospital.
Co-cultures. […]
Flow cytometry. Apoptotic cells were detected with Annexin V-FITC detection kit from BD Pharmingen (San Diego, Calif., USA) according to the manufacturer instructions. […] Data were collected on a LSRII or a LSRFortessa cytometer (BD Biosciences), and analyzed with FlowJo software. […]

For experiment [9], the system named is MOLM-14 and MV4-11 cells. Put plainly: Differentiation of FLT3-ITD AML cell lines (surface markers, morphology). In kind it is cell-based, human. Conditions: another CDC25 inhibitor. How it is done:
(a-b) MOLM-14 and MV4-11 cells were treated for different times with IRC-083864 (100 nM and 200 nM) and the expression of the cell surface markers CD11b, CD14 and CD15 were followed by flow cytometry analysis. (c) MOLM-14 and MV4-11 cells were treated for different times with IRC-083864 (100 nM) and morphological changes were estimated by microscopy after cells were cytospun and stained at days 8 and 13. Original magnification ×100. (d) MOLM-14 cells were treated for different times with IRC-083864 (100 nM) and c-myc expression as well as C/EBPα phosphorylation on serine 21 were analyzed by western blot at day 1, and C/EBPε expression after 6 days of treatment. (e) MOLM-14 cells were transfected with CDC25A shRNA The expression of the cell surface markers CD11b, CD14 and CD15 were followed by flow cytometry analysis at day 3 and 6 (upper panel), and their morphology was analyzed by microscopy after 6 days (lower panel). Original magnification ×100. (f) MOLM-14 cells were transfected with CDC25A siRNA, and their morphology was analyzed by microscopy after 3 days (upper panel). Original magnification ×100. The efficiency of CDC25A siRNA was assessed by western blot analysis (lower panel).
Lentiviral infections. To generate lentiviral vectors expressing CDC25A protein, sequences were cloned into the pTrip-TAL-Ires-GFP lentiviral vector. We used 293-T packaging cells, co-transfected with lentiviral protein (GAG, POL, and ENV) encoding plasmids, and plasmids containing a control or CDC25A genes, separately. Supernatants containing lentivirus were collected 48 h after transfection, during 3 consecutive days. MOLM-14 cells were plated at 5×10^5 cells in 200 μl in serum-free medium and 5 μl of lentiviral supernatant was added during 3 h. Cells were then grown in 10% FBS RPMI medium.
Flow cytometry. Apoptotic cells were detected with Annexin V-FITC detection kit from BD Pharmingen (San Diego, Calif., USA) according to the manufacturer instructions. To evaluate AML cell differentiation, cells were stained for 30 min with the following anti-human monoclonal antibodies: CD11b-PE (Beckman Coulter), CD14-FITC (BD Biosciences), CD15-APC (BD Biosciences). For patient samples, additional hCD45-APC-H7 (BD Biosciences), Annexin V-Pacific Blue (BioLegend, San Diego, Calif., USA) and 7-AAD (Sigma) were used; and for bone marrow mice cells, additional CD33-FITC, CD44-PE Cy7, mCD45-PerCP Cy 5.5, CD14-Alexa 700 were used. Data were collected on a LSRII or a LSRFortessa cytometer (BD Biosciences), and analyzed with FlowJo software. A minimum of 10,000 events was collected.
Morphological examination. […] were spun at 500 rpm for 5 minutes onto glass slides and May-Grünwald-Giemsa stained at the Toulouse University Hospital hematology laboratory.

The subject of experiment [10] is transplanted rat hepatoma cells (Fisher F344). Conditions: delivered intraperitoneally; cited from earlier work.
The test system of experiment [11] is human Hep 3B tumor cells. As to conditions: read-out: IC50 growth of human Hep 3B tumor cells; cited from earlier work.

Cdc25A, sequence (P30304 whole entry): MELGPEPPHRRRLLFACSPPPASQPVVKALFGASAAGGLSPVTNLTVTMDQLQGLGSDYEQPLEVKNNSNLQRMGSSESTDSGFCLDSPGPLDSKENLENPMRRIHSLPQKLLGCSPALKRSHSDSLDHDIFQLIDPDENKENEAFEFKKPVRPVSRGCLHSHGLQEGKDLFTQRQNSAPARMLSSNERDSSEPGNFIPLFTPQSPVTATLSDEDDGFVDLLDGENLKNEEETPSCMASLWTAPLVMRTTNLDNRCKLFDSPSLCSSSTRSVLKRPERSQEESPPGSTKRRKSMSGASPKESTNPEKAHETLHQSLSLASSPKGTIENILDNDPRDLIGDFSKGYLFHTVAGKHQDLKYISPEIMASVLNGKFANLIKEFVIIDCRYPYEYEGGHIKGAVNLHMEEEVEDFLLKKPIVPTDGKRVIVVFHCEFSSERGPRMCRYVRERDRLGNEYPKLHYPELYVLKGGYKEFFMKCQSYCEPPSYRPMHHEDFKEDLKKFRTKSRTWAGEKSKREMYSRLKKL
Cdc25C, sequence (P30307 whole entry): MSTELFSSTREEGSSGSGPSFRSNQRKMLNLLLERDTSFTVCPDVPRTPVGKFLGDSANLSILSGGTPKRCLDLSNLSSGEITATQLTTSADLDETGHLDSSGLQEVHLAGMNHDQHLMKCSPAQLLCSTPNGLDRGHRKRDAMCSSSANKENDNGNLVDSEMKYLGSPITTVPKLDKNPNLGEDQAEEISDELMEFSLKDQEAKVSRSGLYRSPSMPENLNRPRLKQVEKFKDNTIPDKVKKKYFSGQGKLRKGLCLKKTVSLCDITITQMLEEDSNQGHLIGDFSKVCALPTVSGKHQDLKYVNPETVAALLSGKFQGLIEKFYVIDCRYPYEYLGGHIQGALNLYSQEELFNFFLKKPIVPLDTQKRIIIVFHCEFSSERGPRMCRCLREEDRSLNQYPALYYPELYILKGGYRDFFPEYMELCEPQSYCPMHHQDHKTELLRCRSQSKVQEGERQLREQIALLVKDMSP

For `CC(C)(C)c1cc(NC(=O)Nc2ccc(-c3cn4c(n3)sc3cc(OCCN5CCOCC5)ccc34)cc2)no1` [AC220, quizartinib], in [1] (MV4-11 and MOLM-14 cells), the CDC25A protein level entry is reported as “induced CDC25A down-regulation”.
As for `Cc1nc2c(s1)C(=O)C=C(NCCN(C)C)C2=O` [BN82685, reference compound], the pIC50 in experiment [2] is 6.77; in experiment [3], 6.60; in [4] it was 6.60. The “growth inhibition in presence of classical resistance mechanisms (drug efflux pumps, P-glycoprotein, multi-drug resistance proteins)” value in experiment [5] is on record as “unaffected”. Besides, in experiment [5] (treatment time 1 h), the “duration of proliferation inhibition after short treatment” value is given as 96 h. Further, the “growth of Mia-Paca-2 tumors xenografted into nude mice” value in [6] is on record as “inhibited the growth”.
As to `c1ccc(-c2cnc(Nc3ccc(OCCN4CCCC4)cc3)s2)cc1` [FLT3 inhibitor III], the “CDC25A mRNA level” value in [7] was “significantly reduced”. The CDC25A protein level entry is on record as “did not modify” in experiment [1] (KG1, HL-60 (FLT3-wild type) and K562 (FLT3 non-expressing) cells); “induced CDC25A down-regulation” in experiment [1] (MV4-11 and MOLM-14 cells). Further, the “stability of CDC25A protein (half-life with cycloheximide)” value in experiment [1] (cycloheximide 50 μg/mL, inhibitor 100 nM) was “did not significantly modify”. For the same compound, the “accumulation of CDC25A protein (rate of synthesis)” value in [1] (time course, 100 nM, FIG. 3a) is given as “significantly decreased”.
On to `O=C1C(SCCO)=C(SCCO)C(=O)c2ccccc21` [NSC-95397, reference compound], for which the “differentiation of FLT3-wild type samples” value in [8] is recorded as “no evidence of differentiation”. In experiment [9], the “CD11b, CD14 and CD15 markers expression” value is “modifications”; the nuclear morphology result was “nuclear morphological changes”.
On to `O=C1C(SCCO)=C(SCCO)C(=O)N1c1ccc(-c2ccccc2)cc1` [PM20], for which, in experiment [10], the “growth of transplanted rat hepatoma cells in vivo” value is listed as “inhibits the growth”. The pIC50 in experiment [11] is 6.15.
